Data published in the NIST ThermoML archive (doi:10.1021/acs.jced.7b00433).
Numbers after ± are expanded uncertainties.

Test: xn = mol fraction of the nth substance listed
Settings: Drop volume

CC(N)C(=O)O (stereo not drawn) [DL-2-aminopropanoic acid] + O
surface tension liquid-gas [mN/m]
Settings	x1 = 0.000176	x1 = 0.000353	x1 = 0.000705	x1 = 0.001055	x1 = 0.001406	x1 = 0.001752	x1 = 0.002105	x1 = 0.002642
293.15 K	72.52 ± 0.28	72.53 ± 0.28	72.55 ± 0.28	72.58 ± 0.28	72.59 ± 0.28	72.62 ± 0.28	72.64 ± 0.28	72.68 ± 0.28
298.15 K	71.83 ± 0.27	71.86 ± 0.27	71.9 ± 0.27	71.95 ± 0.27	72 ± 0.28	72.07 ± 0.28	72.1 ± 0.28	72.18 ± 0.28
303.15 K	71.11 ± 0.27	71.15 ± 0.27	71.25 ± 0.27	71.35 ± 0.27	71.44 ± 0.27	71.5 ± 0.27	71.61 ± 0.27	71.72 ± 0.27
308.15 K	70.4 ± 0.27	70.42 ± 0.27	70.57 ± 0.27	70.7 ± 0.27	70.83 ± 0.27	70.94 ± 0.27	71.09 ± 0.27	71.28 ± 0.27
313.15 K	69.48 ± 0.27	69.59 ± 0.27	69.73 ± 0.27	69.87 ± 0.27	70.02 ± 0.27	70.2 ± 0.27	70.36 ± 0.27	70.57 ± 0.27

O [water] + CCCCC(N)C(=O)O
x2 = 0
Settings	surface tension liquid-gas [mN/m]
293.15 K	72.5 ± 0.28
298.15 K	71.73 ± 0.27
303.15 K	71 ± 0.27
308.15 K	70.23 ± 0.27
313.15 K	69.42 ± 0.27

O [water] + NCC(=O)O
x2 = 0
Settings	surface tension liquid-gas [mN/m]
293.15 K	72.45 ± 0.28
298.15 K	71.73 ± 0.27
303.15 K	71 ± 0.27
308.15 K	70.22 ± 0.27
313.15 K	69.45 ± 0.27

O [water] + CCC(N)C(=O)O
x2 = 0
Settings	surface tension liquid-gas [mN/m]
293.15 K	72.5 ± 0.28
298.15 K	71.73 ± 0.27
303.15 K	71.1 ± 0.27
308.15 K	70.27 ± 0.27
313.15 K	69.5 ± 0.27

NCC(=O)O [2-aminoacetic acid] + O
surface tension liquid-gas [mN/m]
Settings	x1 = 0.000175	x1 = 0.000349	x1 = 0.000698	x1 = 0.001043	x1 = 0.001394	x1 = 0.00174	x1 = 0.002087	x1 = 0.002641
293.15 K	72.47 ± 0.28	72.49 ± 0.28	72.52 ± 0.28	72.57 ± 0.28	72.62 ± 0.28	72.68 ± 0.28	72.73 ± 0.28	72.81 ± 0.28
298.15 K	71.75 ± 0.27	71.79 ± 0.27	71.86 ± 0.27	71.92 ± 0.27	71.99 ± 0.28	72.05 ± 0.28	72.11 ± 0.28	72.2 ± 0.28
303.15 K	71.04 ± 0.27	71.12 ± 0.27	71.23 ± 0.27	71.33 ± 0.27	71.43 ± 0.27	71.54 ± 0.27	71.64 ± 0.27	71.76 ± 0.27
308.15 K	70.26 ± 0.27	70.38 ± 0.27	70.52 ± 0.27	70.66 ± 0.27	70.81 ± 0.27	70.95 ± 0.27	71.09 ± 0.27	71.25 ± 0.27
313.15 K	69.49 ± 0.27	69.63 ± 0.27	69.79 ± 0.27	69.95 ± 0.27	70.11 ± 0.27	70.27 ± 0.27	70.43 ± 0.27	70.61 ± 0.27

O [water] + CC(N)C(=O)O
x2 = 0
Settings	surface tension liquid-gas [mN/m]
293.15 K	72.5 ± 0.28
298.15 K	71.73 ± 0.27
303.15 K	71.04 ± 0.27
308.15 K	70.3 ± 0.27
313.15 K	69.42 ± 0.27

O [water] + CCCC(N)C(=O)O
x2 = 0
Settings	surface tension liquid-gas [mN/m]
293.15 K	72.58 ± 0.28
298.15 K	71.73 ± 0.27
303.15 K	71.21 ± 0.27
308.15 K	70.4 ± 0.27
313.15 K	69.46 ± 0.27

CCCC(N)C(=O)O (stereo not drawn) [DL-2-aminopentanoic acid] + O
surface tension liquid-gas [mN/m]
Settings	x1 = 0.000173	x1 = 0.000347	x1 = 0.000561	x1 = 0.00104	x1 = 0.001386	x1 = 0.001733	x1 = 0.002079	x1 = 0.002641
293.15 K	72.55 ± 0.28	72.51 ± 0.28	72.43 ± 0.28	72.37 ± 0.28	72.31 ± 0.28	72.25 ± 0.28	72.16 ± 0.28	72.06 ± 0.28
298.15 K	71.84 ± 0.27	71.8 ± 0.27	71.71 ± 0.27	71.63 ± 0.27	71.53 ± 0.27	71.47 ± 0.27	71.41 ± 0.27	71.25 ± 0.27
303.15 K	71.16 ± 0.27	71.13 ± 0.27	71.01 ± 0.27	70.91 ± 0.27	70.79 ± 0.27	70.71 ± 0.27	70.65 ± 0.27	70.5 ± 0.27
308.15 K	70.35 ± 0.27	70.31 ± 0.27	70.2 ± 0.27	70.1 ± 0.27	70.02 ± 0.27	69.85 ± 0.27	69.78 ± 0.27	69.63 ± 0.27
313.15 K	69.39 ± 0.27	69.34 ± 0.27	69.22 ± 0.27	69.07 ± 0.27	69 ± 0.27	68.86 ± 0.27	68.75 ± 0.27	68.58 ± 0.27

CCCCC(N)C(=O)O (stereo not given) [2-aminohexanoic acid] + O
surface tension liquid-gas [mN/m]
Settings	x1 = 0.000156	x1 = 0.000311	x1 = 0.000524	x1 = 0.000699	x1 = 0.000873	x1 = 0.001048	x1 = 0.001222	x1 = 0.001411
293.15 K	72.4 ± 0.28	72.21 ± 0.28	72.02 ± 0.28	71.85 ± 0.27	71.71 ± 0.27	71.48 ± 0.27	71.28 ± 0.27	71.09 ± 0.27
298.15 K	71.55 ± 0.27	71.28 ± 0.27	71.14 ± 0.27	71 ± 0.27	70.82 ± 0.27	70.59 ± 0.27	70.42 ± 0.27	70.18 ± 0.27
303.15 K	70.74 ± 0.27	70.54 ± 0.27	70.43 ± 0.27	70.22 ± 0.27	70.06 ± 0.27	69.79 ± 0.27	69.65 ± 0.27	69.44 ± 0.27
308.15 K	69.9 ± 0.27	69.8 ± 0.27	69.62 ± 0.27	69.44 ± 0.27	69.23 ± 0.27	69 ± 0.27	68.8 ± 0.27	68.59 ± 0.27
313.15 K	69.2 ± 0.27	69.02 ± 0.27	68.91 ± 0.27	68.68 ± 0.27	68.47 ± 0.27	68.18 ± 0.26	68.02 ± 0.26	67.87 ± 0.26

CCC(N)C(=O)O (stereo not drawn) [(.+-.)-α-aminobutyric acid] + O
surface tension liquid-gas [mN/m]
Settings	x1 = 0.000177	x1 = 0.000351	x1 = 0.000702	x1 = 0.001053	x1 = 0.001403	x1 = 0.001754	x1 = 0.002103	x1 = 0.002641
293.15 K	72.49 ± 0.28	72.49 ± 0.28	72.48 ± 0.28	72.47 ± 0.28	72.46 ± 0.28	72.45 ± 0.28	72.44 ± 0.28	72.43 ± 0.28
298.15 K	71.8 ± 0.27	71.79 ± 0.27	71.77 ± 0.27	71.75 ± 0.27	71.74 ± 0.27	71.72 ± 0.27	71.71 ± 0.27	71.69 ± 0.27
303.15 K	71.08 ± 0.27	71.07 ± 0.27	71.05 ± 0.27	71.02 ± 0.27	71 ± 0.27	70.98 ± 0.27	70.96 ± 0.27	70.93 ± 0.27
308.15 K	70.25 ± 0.27	70.24 ± 0.27	70.21 ± 0.27	70.19 ± 0.27	70.15 ± 0.27	70.13 ± 0.27	70.09 ± 0.27	70.07 ± 0.27
313.15 K	69.47 ± 0.27	69.45 ± 0.27	69.42 ± 0.27	69.39 ± 0.27	69.35 ± 0.27	69.31 ± 0.27	69.28 ± 0.27	69.22 ± 0.27
